Test results reported in PubChem BioAssay AID248 (DTP/NCI, 2004).
Values joined by “and” are separate entries in the source; they are usually repeats but may differ in a detail not shown here. Equal values may be shown once. Toxic doses and inconclusive results are not listed. Cut-off read from the data, not from the text of the source: active = T/C of 150% or more; inactive = T/C below 125%.

Tested on: L1210 leukemia ip in BDF1 mice, survival T/C
Assay: NCI In Vivo Anticancer Drug Screen. Data for tumor model L1210 Leukemia (intraperitoneal) in B6D2F1 (BDF1) mice
Settings: endpoint: mean survival time, higher = longer survival
How it was run: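 Transplanted-tumor mice were given test agent; controls received vehicle only. Survival readings from the two groups were divided (treated over control).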

[1] = dose: 100.0 mg/kg/injection, schedule: Q04DX002 (ip), vehicle: Klucel (hydroxypropylcellulose) (HPC)
[2] = dose: 200.0 mg/kg/injection, schedule: Q04DX002 (ip), vehicle: Klucel (hydroxypropylcellulose) (HPC)
[3] = dose: 100.0 mg/kg/injection, schedule: Q01DX009 (ip), vehicle: saline
[4] = dose: 100.0 mg/kg/injection, schedule: Q04DX003 (ip), vehicle: saline
[5] = dose: 200.0 mg/kg/injection, schedule: Q01DX009 (ip), vehicle: saline
[6] = dose: 200.0 mg/kg/injection, schedule: Q04DX003 (ip), vehicle: saline
[7] = dose: 400.0 mg/kg/injection, schedule: Q04DX003 (ip), vehicle: saline
[8] = dose: 100.0 mg/kg/injection, schedule: Q01DX009 (ip), vehicle: saline with Tween-80
[9] = dose: 200.0 mg/kg/injection, schedule: Q01DX009 (ip), vehicle: saline with Tween-80
[10] = dose: 400.0 mg/kg/injection, schedule: Q01DX009 (ip), vehicle: saline with Tween-80

Measured: T/C

COc1cc(-c2nc(CCl)no2)cc(OC)c1OC
inactive: [1] 95 % of control | [2] 104 % of control | dose: 400.0 mg/kg/injection, schedule: Q04DX002 (ip), vehicle: Klucel (hydroxypropylcellulose) (HPC) 104 % of control

NCc1ccccc1F
inactive: [3] 100 % of control | [4] 107 % of control | [5] 90 % of control | [6] 100 % of control | [7] 102 % of control

COc1cc2ccc3c4cc5c(cc4cnc3c2cc1OC)OCO5
inactive: [8] 102 % of control | dose: 100.0 mg/kg/injection, schedule: Q04DX003 (ip), vehicle: saline with Tween-80 89 % of control | [9] 98 % of control | dose: 200.0 mg/kg/injection, schedule: Q04DX003 (ip), vehicle: saline with Tween-80 87 % of control | [10] 106 % of control | dose: 400.0 mg/kg/injection, schedule: Q04DX003 (ip), vehicle: saline with Tween-80 89 % of control

CC[N+]1=NC2CCCC(C2)C1 (stereo not given)
inactive: dose: 50.0 mg/kg/injection, schedule: Q01DX009 (ip), vehicle: saline 96 % of control | [3] 86 % of control | [4] 101 % of control | [5] 90 % of control | [6] 95 % of control

CCCCCc1ccc2oc(=O)c3ccc(C)cc3c2c1O
inactive: dose: 100.0 mg/kg/injection, schedule: Q01DX009 (ip), vehicle: Klucel (hydroxypropylcellulose) (HPC) 90 % of control | dose: 100.0 mg/kg/injection, schedule: Q04DX003 (ip), vehicle: Klucel (hydroxypropylcellulose) (HPC) 97 % of control | dose: 200.0 mg/kg/injection, schedule: Q01DX009 (ip), vehicle: Klucel (hydroxypropylcellulose) (HPC) 93 % of control | dose: 200.0 mg/kg/injection, schedule: Q04DX003 (ip), vehicle: Klucel (hydroxypropylcellulose) (HPC) 98 % of control | dose: 400.0 mg/kg/injection, schedule: Q01DX009 (ip), vehicle: Klucel (hydroxypropylcellulose) (HPC) 97 % of control | dose: 400.0 mg/kg/injection, schedule: Q04DX003 (ip), vehicle: Klucel (hydroxypropylcellulose) (HPC) 97 % of control

CS(=O)(=O)OCCCCO
inactive: dose: 50.0 mg/kg/injection, schedule: Q01DX001 (ip), vehicle: carboxymethylcellulose (CMC) 88 % of control | dose: 100.0 mg/kg/injection, schedule: Q01DX001 (ip), vehicle: carboxymethylcellulose (CMC) 93 % of control | dose: 200.0 mg/kg/injection, schedule: Q01DX001 (ip), vehicle: carboxymethylcellulose (CMC) 93 % of control | dose: 400.0 mg/kg/injection, schedule: Q01DX001 (ip), vehicle: carboxymethylcellulose (CMC) 90 % of control

O=[N+]([O-])c1ccc(N/N=C(\c2ccccc2)C2CCC2)c([N+](=O)[O-])c1
inactive: dose: 50.0 mg/kg/injection, schedule: Q04DX002 (ip), vehicle: Klucel (hydroxypropylcellulose) (HPC) 99 % of control | [1] 96 % of control | [2] 96 % of control

CS(=O)(=O)C(=Cc1ccccc1Cl)S(C)(=O)=O
inactive: [8] 92 % of control | [9] 100 % of control | [10] 101 % of control

CCCCCCCCCCCCCCCC(=O)N(CCC#N)CCCCN(CCC#N)C(=O)CCCCCCCCCCCCCCC
inactive: dose: 50.0 mg/kg/injection, schedule: Q01DX009 (ip), vehicle: saline with Tween-80 97 % of control and 106 % of control | [8] 93 % of control and 90 % of control | [9] 95 % of control and 102 % of control | dose: 300.0 mg/kg/injection, schedule: Q01DX009 (ip), vehicle: saline with Tween-80 92 % of control | [10] 98 % of control and 92 % of control | dose: 500.0 mg/kg/injection, schedule: Q01DX009 (ip), vehicle: saline with Tween-80 92 % of control

CCC(=O)c1ccc(NC(=S)Nc2ccccc2)cc1
inactive: dose: 5.0 mg/kg/injection, schedule: Q01DX009 (ip), vehicle: saline with Tween-80 104 % of control | dose: 10.0 mg/kg/injection, schedule: Q01DX009 (ip), vehicle: saline with Tween-80 97 % of control | dose: 20.0 mg/kg/injection, schedule: Q01DX009 (ip), vehicle: saline with Tween-80 101 % of control and 86 % of control | dose: 40.0 mg/kg/injection, schedule: Q01DX009 (ip), vehicle: saline with Tween-80 95 % of control and 89 % of control | dose: 80.0 mg/kg/injection, schedule: Q01DX009 (ip), vehicle: saline with Tween-80 86 % of control and 88 % of control | [4] 110 % of control | [6] 100 % of control | dose: 320.0 mg/kg/injection, schedule: Q01DX009 (ip), vehicle: saline with Tween-80 87 % of control | [7] 98 % of control
